These are literature values, as cited in patent US6872562B2, “Herbicide resistant dinitrogen fixing bacteria and method of use” (priority 2001, dated 2005).

Each structure is given as a SMILES string.

For this data set, the system named is soybean. Particulars: in vivo; cited from earlier work.

For `CCCN(CCC)c1c([N+](=O)[O-])cc(C(F)(F)F)cc1[N+](=O)[O-]` [Trifuralin], the “Effect on nodulation and N2 fixation” value was “decreases nodulation and N2 fixation”.
